Data: PMC7520419 (The AAPS Journal, 2020)
Values after ≈ are worked out from the molar mass of the structure shown. Read-outs that look alike come from different tables or passages of the source.

Key:
[1] = PBPK food effect modeling (Simcyp V17.1 and/or GastroPlus V9.5; Model 1 / Model 2); parameters: species or system human
[2] = pKa
[3] = test system: Caco-2; details: not generated within this working group; ref Table I; cited from earlier work
[4] = cited from earlier work; for Observed AUC(0-inf) Fasted / Observed Cmax Fasted / Observed AUC(0-inf) Fed / Observed Cmax Fed / Observed AUC Ratios (Fed/Fasted) / Observed Cmax Ratios (Fed/Fasted): ref published clinical data (Table I)
[5] = Solubility measurement in biorelevant media (FaSSIF-V2, FeSSIF-V2); details: 37 °C, thermodynamic from solid
Description: (§1) The solubility of the drug substances was determined in biorelevant media as well as in aqueous buffers at different pH. Fasted state simulated gastric fluid (FaSSGF) ([37]), fasted state simulated intestinal fluid (FaSSIF-V2) ([38]), and fed state simulated intestinal fluid (FeSSIF-V2) ([39]) were prepared according to the instructions provided by Biorelevant (Biorelevant.com Ltd., London, UK). […] For neutral compounds, solubility was determined at pH 2, pH 4, and pH 7.
(§2) For freely soluble compounds, the extent of solubilization was measured only up to 10 mg/mL.

[6] = parameters: method as in Table I reference column; details: not generated within this working group; ref Table I; cited from earlier work
[7] = Solubility measurement in aqueous buffer solutions; details: pH 6.5, aqueous buffer, thermodynamic from solid
Description: as §1, §2

[8] = Effective human jejunum permeability (Peff,man) used in the PBPK model; assay type: in vitro ADME; details: human, 1 h
Description: Permeation rates of the compounds, including reference compounds, were measured in the apical-to-basolateral (AB) direction. The donor and receiver wells were sampled immediately after application of the compound to the donor well to determine baseline concentrations, and again after 1 h. Quantification was done using high-performance liquid chromatography combined with mass spectrometry (HPLC-MS/MS) analysis and monolayer integrity was verified by analyzing the receiver samples for LuY fluorescence in a plate reader.

[9] = not generated within this working group; ref Table I; cited from earlier work
[10] = clinically observed PK change (AUC, Cmax) fed vs fasted, compiled by literature search
[11] = FaSSIF-V2 (fasted state simulated intestinal fluid), FaSSIF solubility
[12] = FeSSIF-V2 (fed state simulated intestinal fluid), FeSSIF solubility
[13] = direction, AUC and/or Cmax ratio fed to fasted, BE criteria 0.8–1.25, ref drug label

Compound | AUC Ratio of Ratios (Sim'd / Obs'd) ([1]; Model 1) | Cmax Ratio of Ratios (Sim'd / Obs'd) ([1]; Model 1) | AUC Ratio of Ratios (Sim'd / Obs'd) ([1]; Model 2) | Cmax Ratio of Ratios (Sim'd / Obs'd) ([1]; Model 2) | pKa ([2]; pKa (b, basic)) | Apparent permeability (Caco-2) [3] | Observed AUC(0-inf) Fasted ([4]; Model 1) [µg·h/mL] | Observed Cmax Fasted ([4]; Model 1) [µg/mL] | Observed AUC(0-inf) Fed ([4]; Model 1) [µg·h/mL] | Observed Cmax Fed ([4]; Model 1) [µg/mL] | Observed AUC Ratios (Fed/Fasted) ([4]; Model 1) | Observed Cmax Ratios (Fed/Fasted) ([4]; Model 1) | Observed AUC(0-inf) Fasted ([4]; Model 2) [µg·h/mL] | Observed Cmax Fasted ([4]; Model 2) [µg/mL] | Observed AUC(0-inf) Fed ([4]; Model 2) [µg·h/mL] | Observed Cmax Fed ([4]; Model 2) [µg/mL] | Observed AUC Ratios (Fed/Fasted) ([4]; Model 2) | Observed Cmax Ratios (Fed/Fasted) ([4]; Model 2) | Food Effect [4, 10] | Food Effect [4, 13] | also measured
CN/C(=N/CCSCc1nc[nH]c1C)NC#N [Cimetidine] | 1.14 | 0.87 | 1.19 | 1.10 | 6.9 | 5.4 (Caco-2)^^ × 10^−6 cm/s | 4.88 | 0.9 | 4.15 | 0.81 | 0.85 | 0.90 | 5.35 | 0.89 | 4.58 | 0.8 | 0.86 | 0.90 | None (none if no significant change in AUC and Cmax with food) | – | solubility [5, 11]: 22000 µg/mL (≈ 87.2 mM); solubility [5, 12]: 21500 µg/mL (≈ 85.2 mM)
CC(C)(C)c1nc(-c2cccc(NS(=O)(=O)c3c(F)cccc3F)c2F)c(-c2ccnc(N)n2)s1 [Dabrafenib] | – | – | – | – | 2.2 | – | – | – | – | – | – | – | 12.1 | 2.16 | 8.47 | 1.07 | 0.70 | 0.49 | – | Negative (negative if ratio fasted > fed) | pKa ([2]; pKa (a, acidic)): 6.6; FaSSIF solubility [6]: 6.2^^ μg/ml; FeSSIF solubility [6]: 6.8^^ μg/ml; solubility [7]: 1 µg/mL (≈ 0.00192 mM)
Cc1ccc(-c2ncc(Cl)cc2-c2ccc(S(C)(=O)=O)cc2)cn1 [Etoricoxib] | 1.05 | 0.97 | 1.06 | 1.25 | 4.5 | 52.3 (Caco-2)^^ × 10^−6 cm/s | 44.4 | 2.89 | 42.2 | 1.89 | 0.95 | 0.65 | 44.4 | 2.89 | 42.2 | 1.89 | 0.95 | 0.65 | Negative (negative if ratio fasted > fed) | Negative (negative if ratio fasted > fed) | Effective permeability [8]: 4800 nm/s; Solubility at pH 6.5 [9]: 67^^ μg/ml; FaSSIF solubility [6]: 67^^ μg/ml; FeSSIF solubility [6]: 95^^ μg/ml; food effect (FE) direction ([4]; ref drug label): negative FE
NNC(=O)c1ccncc1 [Isoniazid] | 1.08 | 1.48 | 0.91 | 1.46 | 1.8 | 16 (Caco-2)^^ × 10^−6 cm/s | 24.6 | 5 | 19.5 | 2.5 | 0.79 | 0.50 | 18.5 | 5.87 | 14.8 | 2.73 | 0.80 | 0.47 | Negative (negative if ratio fasted > fed) | Negative (negative if ratio fasted > fed) | Effective permeability [8]: 4000 nm/s; solubility [7]: 128000 µg/mL (≈ 933 mM)
COCCc1ccc(OCC(O)CNC(C)C)cc1 (centres unmarked) [Metoprolol] | – | – | – | – | – | – | 0.302 | 0.111 | 0.426 | 0.148 | – | – | – | – | – | – | – | – | – | – | solubility [7]: 17100 µg/mL (≈ 64 mM)
CC1(C)CCC(CN2CCN(c3ccc(C(=O)NS(=O)(=O)c4ccc(NCC5CCOCC5)c([N+](=O)[O-])c4)c(Oc4cnc5[nH]ccc5c4)c3)CC2)=C(c2ccc(Cl)cc2)C1 [Venetoclax] | – | – | 0.79 | 0.75 | 10.3 | – | – | – | – | – | – | – | 2.08 | 0.15 | 7.1 | 0.5 | 3.41 | 3.33 | Positive (positive if the ratio of fed > fasted) | Positive (positive if the ratio of fed > fasted) | pKa ([2]; pKa (a, acidic)): 3.4; solubility [7]: 6 µg/mL (≈ 0.00691 mM); solubility [5, 11]: 0.0337 µg/mL (≈ 3.88e-05 mM); solubility [5, 12]: 26.4 µg/mL (≈ 0.0304 mM)

The next lines start with results.

AUC Ratio of Ratios (Sim'd / Obs'd) ([1]; Model 1) | Cmax Ratio of Ratios (Sim'd / Obs'd) ([1]; Model 1) | AUC Ratio of Ratios (Sim'd / Obs'd) ([1]; Model 2) | Cmax Ratio of Ratios (Sim'd / Obs'd) ([1]; Model 2) | Compound | pKa ([2]; pKa (b, basic)) | Apparent permeability (Caco-2) [3] | Observed AUC(0-inf) Fasted ([4]; Model 1) [µg·h/mL] | Observed Cmax Fasted ([4]; Model 1) [µg/mL] | Observed AUC(0-inf) Fed ([4]; Model 1) [µg·h/mL] | Observed Cmax Fed ([4]; Model 1) [µg/mL] | Observed AUC Ratios (Fed/Fasted) ([4]; Model 1) | Observed Cmax Ratios (Fed/Fasted) ([4]; Model 1) | Observed AUC(0-inf) Fasted ([4]; Model 2) [µg·h/mL] | Observed Cmax Fasted ([4]; Model 2) [µg/mL] | Observed AUC(0-inf) Fed ([4]; Model 2) [µg·h/mL] | Observed Cmax Fed ([4]; Model 2) [µg/mL] | Observed AUC Ratios (Fed/Fasted) ([4]; Model 2) | Observed Cmax Ratios (Fed/Fasted) ([4]; Model 2) | Food Effect [4, 10] | Food Effect [4, 13] | also measured
1.25 | 0.61 | 1.25 | 1.42 | Cc1[nH]c2ccccc2c1CCNCc1ccc(/C=C/C(=O)NO)cc1 [Panobinostat] | 9 | 11 (Caco-2)^^ × 10^−6 cm/s | 0.148 | 0.0175 | 0.124 | 0.0098 | 0.84 | 0.56 | 0.128 | 0.0175 | 0.108 | 0.0098 | 0.85 | 0.56 | None (none if no significant change in AUC and Cmax with food) | None (none if no significant change in AUC and Cmax with food) | Effective permeability [8]: 2300 nm/s; pKa ([2]; pKa (a, acidic)): 8.35; Solubility at pH 6.5 [9]: 261^^ μg/ml; FaSSIF solubility [6]: 140^^ μg/ml; FeSSIF solubility [6]: 230^^ μg/ml
0.92 | 1.23 | – | – | CC(C)(CO)c1cc2cc(NC(=O)C3(c4ccc5c(c4)OC(F)(F)O5)CC3)c(F)cc2n1C[C@@H](O)CO [Tezacaftor] | – | 4.2 (Caco-2)^^ × 10^−6 cm/s | 3.97 | 2.34 | 4.36 | 1.89 | 1.10 | 0.81 | – | – | – | – | – | – | None (none if no significant change in AUC and Cmax with food) | None (none if no significant change in AUC and Cmax with food) | pKa (ionisation state in words) [2]: Neutral; Solubility at pH 6.5 [9]: 110^^ μg/ml; FaSSIF solubility [6]: 119^^ μg/ml; FeSSIF solubility [6]: 4783^^ μg/ml
